Data published in PMC9387934, “Randomized single oral dose phase 1 study of safety, tolerability, and pharmacokinetics of Iminosugar UV-4 Hydrochloride (UV-4B) in healthy subjects” (PLoS Neglected Tropical Diseases, 2022).
Read-outs that look alike come from different tables or passages of the source.

Assay: Phase 1a single ascending dose study: UV-4 plasma concentrations and PK parameters (LC-MS/MS, noncompartmental)
Assay type: in vivo
Settings: for Tmax / half-life / AUC(0-inf) / Cmax: both sexes, human, plasma; for AUC(0-inf): read-out: AUC(0-inf); for Cmax: read-out: Cmax
Procedure: UV-4 ((2R,3R,4R,5S)-2-(hydroxymethyl)-1-(9-methoxynonyl)piperidine-3,4,5-triol, also called N-(9’-methoxynonyl)-1-deoxynojirimycin, or MON-DNJ) hydrochloride was evaluated in a first-in-human, randomized, single-center, double-blind, placebo-controlled, parallel group, single ascending dose Phase 1a clinical trial in healthy subjects (Figs 1 and 2, ClinicalTrials.gov Identifier NCT02061358 https://clinicaltrials.gov/ct2/show/NCT02061358). The primary objective was to determine the safety and tolerability of a single-ascending oral dose of UV-4 hydrochloride (Fig 3). […] The secondary objective was to determine PK parameters describing absorption and elimination of UV-4 following a single oral dose of UV-4 hydrochloride. Eight cohorts of eight subjects each were enrolled and completed the study. In each cohort, six subjects received UV-4 as the hydrochloride; two received placebo. Subjects were screened against study eligibility criteria up to four weeks (Days -28 to -2) before admission to the clinic (Day -1). Dosing was performed on an inpatient basis. Subjects remained in clinic for 48 hours post-dosing for PK sample collection and safety assessments and were discharged from the clinic on Day 3. Subjects returned to the clinic on Day 4 for additional safety assessments, then again on Day 9 ± 1 for a final follow-up visit.
Eligible subjects were healthy males and females, age 18–45 years, with a body mass index between 18 and 30 kg/m^2 inclusive and a minimum body weight of 60 kg. Subjects were considered healthy based on medical history, physical exam, vital signs, 12-lead electrocardiogram (ECG), clinical laboratory tests (hematology, blood chemistry, urinalysis), viral serology, and drug and alcohol screening. Male and female subjects of childbearing potential were required to use adequate contraception over the course of the clinical trial. […] Only subjects who met all inclusion and none of the exclusion criteria prior to administration of the investigational product were enrolled into the study (no exemptions were granted). A total of 64 subjects were enrolled (eight cohorts of eight subjects each). In each of the eight cohorts, six subjects were randomized to receive a single dose of UV-4 (3 to 1000 mg, depending on cohort) as the hydrochloride salt, and two subjects to receive placebo. Cohort size of six active subjects was based on analysis that increasing cohort size above six in a first-in-human study gains little in the ability to observe a drug induced event, and results in observing more events that are not related to study drug. Two of the eight subjects in each cohort (sentinel subjects; one active and one placebo) received their doses at least 48 h before the remaining subjects in each cohort.
On each day of use, bulk drug substance (UV-4B for solubilization, SAI Life Sciences Ltd. Telangana, India) was removed from a single-use container, weighed at the study center, and solubilized in 20 mL sterile water for injection (SWFI) (Hospira Inc. Illinois, United States of America). Weight of solid drug substance was converted to dose of UV-4 by applying purity and salt correction factor per pharmacy manual when preparing the dosing solution. UV-4B solution was administered orally with 10 mL of taste-masking agent, OraSweet-SF (Paddock Laboratories LLC, Minneapolis, United States of America) in a total volume of 30 mL, to assist in maintaining study blinding. Placebo was SWFI (20 mL) plus OraSweet-SF (10 mL). Concentrations and doses were calculated and expressed as the active free base form, UV-4. This methodology is consistent with USP<1121>, which recommends that the strength of a drug product or preparation is expressed in terms of the active moiety. Following consumption of active or placebo solution, the dosing container was rinsed with 50 mL of tap water also consumed by subjects. […]

[1] = po, 3 mg, 3 mg single oral dose, Ar Mean

Q: Which “Time over which UV-4 plasma concentrations were quantifiable” value (3 mg, 5 of 6 subjects) does the source give for `COCCCCCCCCCN1C[C@H](O)[C@@H](O)[C@H](O)[C@H]1CO` [UV-4, N-(9’-methoxynonyl)-1-deoxynojirimycin] here?
A: 24 h

Q: What about the “Time over which UV-4 plasma concentrations were quantifiable” value (3 mg, one subject) of the same molecule?
A: 36 h

Q: What about the Tmax (oral, 3 to 1000 mg UV-4 dose range, read-out: Median time to reach maximum plasma concentration (tmax), range across dose groups) of the same molecule?
A: 0.5 to 1 h

Q: What about the half-life (oral, Phase 1a study, 3 to 1000 mg, read-out: Mean half-life, range across dose groups) of the same molecule?
A: 8.14 to 12 h

Q: And the AUC(0-inf) [1]?
A: 95.6 ng·h/mL

Q: And the Cmax [1]?
A: 22.4 ng/mL

Q: And the half-life (po, 3 mg, 3 mg single oral dose, Ar Mean, read-out: t1/2 (converted))?
A: 10.7 h

Q: What about the AUC(0-inf) (po, 3 mg, 3 mg single oral dose, Arithmetic Mean) of the same molecule?
A: 95.6 ng·h/mL

Q: And the Cmax (po, 3 mg, 3 mg single oral dose, Geo Mean)?
A: 22.1 ng/mL

Q: What about the half-life (po, 3 mg, 3 mg single oral dose, Geo Mean, read-out: t1/2 (converted)) of the same molecule?
A: 10.3 h

Q: And the AUC(0-inf) (po, 3 mg, 3 mg single oral dose, Geometric Mean)?
A: 94.6 ng·h/mL

Q: What about the Tmax (po, 3 mg, 3 mg single oral dose, median, read-out: tmax) of the same molecule?
A: 0.5 h

Q: And the Cmax (po, 10 mg, 10 mg single oral dose, Ar Mean)?
A: 84.6 ng/mL

Q: What about the half-life (po, 10 mg, 10 mg single oral dose, Ar Mean, read-out: t1/2 (converted)) of the same molecule?
A: 12 h

Q: What about the AUC(0-inf) (po, 10 mg, 10 mg single oral dose, Arithmetic Mean) of the same molecule?
A: 431 ng·h/mL

Q: What about the Cmax (po, 10 mg, 10 mg single oral dose, Geo Mean) of the same molecule?
A: 82.6 ng/mL

Q: And the half-life (po, 10 mg, 10 mg single oral dose, Geo Mean, read-out: t1/2 (converted))?
A: 11.9 h

Q: What about the AUC(0-inf) (po, 10 mg, 10 mg single oral dose, Geometric Mean) of the same molecule?
A: 420 ng·h/mL

Q: And the Tmax (po, 10 mg, 10 mg single oral dose, median, read-out: tmax)?
A: 1 h

Q: What about the Cmax (po, 30 mg, 30 mg single oral dose, Ar Mean) of the same molecule?
A: 292 ng/mL

Q: And the half-life (po, 30 mg, 30 mg single oral dose, Ar Mean, read-out: t1/2 (converted))?
A: 10 h

Q: What about the AUC(0-inf) (po, 30 mg, 30 mg single oral dose, Arithmetic Mean) of the same molecule?
A: 1260 ng·h/mL

Q: What about the Cmax (po, 30 mg, 30 mg single oral dose, Geo Mean) of the same molecule?
A: 289 ng/mL

Q: What about the half-life (po, 30 mg, 30 mg single oral dose, Geo Mean, read-out: t1/2 (converted)) of the same molecule?
A: 10 h

Q: And the AUC(0-inf) (po, 30 mg, 30 mg single oral dose, Geometric Mean)?
A: 1260 ng·h/mL

Q: And the Tmax (po, 30 mg, 30 mg single oral dose, median, read-out: tmax)?
A: 0.5 h

Q: What about the Cmax (po, 90 mg, 90 mg single oral dose, Ar Mean) of the same molecule?
A: 946 ng/mL

Q: What about the half-life (po, 90 mg, 90 mg single oral dose, Ar Mean, read-out: t1/2 (converted)) of the same molecule?
A: 10.4 h

Q: What about the AUC(0-inf) (po, 90 mg, 90 mg single oral dose, Arithmetic Mean) of the same molecule?
A: 3730 ng·h/mL

Q: What about the Cmax (po, 90 mg, 90 mg single oral dose, Geo Mean) of the same molecule?
A: 900 ng/mL

Q: What about the half-life (po, 90 mg, 90 mg single oral dose, Geo Mean, read-out: t1/2 (converted)) of the same molecule?
A: 10.2 h

Q: What about the AUC(0-inf) (po, 90 mg, 90 mg single oral dose, Geometric Mean) of the same molecule?
A: 3700 ng·h/mL

Q: What about the Tmax (po, 90 mg, 90 mg single oral dose, median, read-out: tmax) of the same molecule?
A: 0.5 h

Q: And the Cmax (po, 180 mg, 180 mg single oral dose, Ar Mean)?
A: 2150 ng/mL

Q: And the half-life (po, 180 mg, 180 mg single oral dose, Ar Mean, read-out: t1/2 (converted))?
A: 8.7 h

Q: And the AUC(0-inf) (po, 180 mg, 180 mg single oral dose, Arithmetic Mean)?
A: 7110 ng·h/mL

Q: What about the Cmax (po, 180 mg, 180 mg single oral dose, Geo Mean) of the same molecule?
A: 2060 ng/mL

Q: What about the half-life (po, 180 mg, 180 mg single oral dose, Geo Mean, read-out: t1/2 (converted)) of the same molecule?
A: 8.7 h

Q: And the AUC(0-inf) (po, 180 mg, 180 mg single oral dose, Geometric Mean)?
A: 7090 ng·h/mL

Q: What about the Tmax (po, 180 mg, 180 mg single oral dose, median, read-out: tmax) of the same molecule?
A: 0.8 h

Q: And the Cmax (po, 360 mg, 360 mg single oral dose, Ar Mean)?
A: 4570 ng/mL

Q: What about the half-life (po, 360 mg, 360 mg single oral dose, Ar Mean, read-out: t1/2 (converted)) of the same molecule?
A: 8.1 h

Q: What about the AUC(0-inf) (po, 360 mg, 360 mg single oral dose, Arithmetic Mean) of the same molecule?
A: 13800 ng·h/mL

Q: What about the Cmax (po, 360 mg, 360 mg single oral dose, Geo Mean) of the same molecule?
A: 4490 ng/mL

Q: What about the half-life (po, 360 mg, 360 mg single oral dose, Geo Mean, read-out: t1/2 (converted)) of the same molecule?
A: 8.1 h

Q: What about the AUC(0-inf) (po, 360 mg, 360 mg single oral dose, Geometric Mean) of the same molecule?
A: 13700 ng·h/mL

Q: What about the Tmax (po, 360 mg, 360 mg single oral dose, median, read-out: tmax) of the same molecule?
A: 0.5 h

Q: And the Cmax (po, 720 mg, 720 mg single oral dose, Ar Mean)?
A: 9920 ng/mL

Q: And the half-life (po, 720 mg, 720 mg single oral dose, Ar Mean, read-out: t1/2 (converted))?
A: 8.2 h

Q: And the AUC(0-inf) (po, 720 mg, 720 mg single oral dose, Arithmetic Mean)?
A: 32900 ng·h/mL

Q: And the Cmax (po, 720 mg, 720 mg single oral dose, Geo Mean)?
A: 9760 ng/mL

Q: And the half-life (po, 720 mg, 720 mg single oral dose, Geo Mean, read-out: t1/2 (converted))?
A: 8.2 h

Q: And the AUC(0-inf) (po, 720 mg, 720 mg single oral dose, Geometric Mean)?
A: 32800 ng·h/mL

Q: What about the Tmax (po, 720 mg, 720 mg single oral dose, median, read-out: tmax) of the same molecule?
A: 0.8 h

Q: And the Cmax (po, 1000 mg, 1000 mg single oral dose, Ar Mean)?
A: 13100 ng/mL

Q: And the half-life (po, 1000 mg, 1000 mg single oral dose, Ar Mean, read-out: t1/2 (converted))?
A: 8.8 h

Q: What about the AUC(0-inf) (po, 1000 mg, 1000 mg single oral dose, Arithmetic Mean) of the same molecule?
A: 43100 ng·h/mL

Q: What about the Cmax (po, 1000 mg, 1000 mg single oral dose, Geo Mean) of the same molecule?
A: 13000 ng/mL

Q: What about the half-life (po, 1000 mg, 1000 mg single oral dose, Geo Mean, read-out: t1/2 (converted)) of the same molecule?
A: 8.6 h

Q: What about the AUC(0-inf) (po, 1000 mg, 1000 mg single oral dose, Geometric Mean) of the same molecule?
A: 42800 ng·h/mL

Q: What about the Tmax (po, 1000 mg, 1000 mg single oral dose, median, read-out: tmax) of the same molecule?
A: 1 h

Q: And the “Time over which UV-4 plasma concentrations were quantifiable” value (doses of 10 mg or higher, entire collection interval)?
A: 48 h
